# Literature values as cited in patent US20060199791A1, “Anti-microbial composition comprising a metal ion chelating agent” (AQ+ PLC, priority 2001, published 2006).
# Tested on: long term sinus infection
# Settings: patient history, infection for some 14 to 15 years
row,Compound,response of the sinus infection to earlier antibiotic treatment
1,O=C(O)c1cn(C2CC2)c2cc(N3CCNCC3)c(F)cc2c1=O [Cipro],resistant to treatment
2,CCC[C@@H]1C[C@@H](C(=O)N[C@@H]([C@H]2O[C@H](SC)[C@H](O)[C@@H](O)[C@H]2O)[C@H](C)Cl)N(C)C1 [Clindramycin],resistant to treatment
3,CC1(C)S[C@@H]2[C@H](NC(=O)[C@H](N)c3ccc(O)cc3)C(=O)N2[C@H]1C(=O)O [Trimox],resistant to treatment
4,CC1(C)S[C@@H]2[C@H](NC(=O)COc3ccccc3)C(=O)N2[C@H]1C(=O)O [Veetids],resistant to treatment
